Measured values published in patent US20090004683A1, “Indicator Agent for Noninflammatory Stress Response and Use Thereof” (priority 2004, published 2009).

How the values were obtained:
Assay type in all cases: in vivo, mouse
ACTH = experiment: Blood ACTH after IL-18 administration; conditions: C57B/6 mice, 1.5 μg IL-18 intravenously; FIG. 13A
Description: (§1) 1.5 μg of IL-18 prepared by genetic recombination technology was intravenously injected to C57B/6 mice, and thereafter ACTH, FSH and LH levels in blood were examined. […] FIGS. 13B and 13C show FSH and LH levels in plasma collected from mice 1 hour after IL-18 administration. It was shown that the concentrations of FSH and LH in plasma rose with the administration of IL-18.

FSH = experiment: Plasma FSH after IL-18 administration; conditions: C57B/6 mice, 1.5 μg IL-18 intravenously, 1 hour after administration; FIG. 13B
Description: as §1

LH = experiment: Plasma LH after IL-18 administration; conditions: C57B/6 mice, 1.5 μg IL-18 intravenously, 1 hour after administration; FIG. 13C
Description: as §1

IL-18: IL-18 prepared by genetic recombination technology
rose: blood ACTH concentration (ACTH) | concentration of FSH in plasma (FSH) | concentration of LH in plasma (LH)
